Results as given in the supplement of paper PMC4862054.

Legend:
Assay in all cases: normalised response (% of control), CellTox Green; higher = less cell death (100 = DMSO, 0 = benzethonium chloride kill control)
Conditions in all cases: incubation time: 72 h
CAL-148 = test system: CAL-148
Procedure, shortened: (§1)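 Breast cancer cell lines, seeded at 20 µl suspension per well, were incubated for 72 h in 384-well plates containing compound at 5 concentrations. These concentrations rose in 10-fold steps over a 10,000-fold range set for each compound. CellTox Green fluorescence (485/520 nm) was read, then CellTiter-Glo luminescence after 10 min at room temperature, and each plate was normalised to 0.1 % DMSO (100) and a positive kill control (0). Values are normalised signals, each at one concentration.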

MDA-MB-436 = test system: MDA-MB-436
Procedure, shortened: as §1

Hs578T = test system: Hs578T
Procedure, shortened: as §1

BT-474 = test system: BT-474
Procedure, shortened: as §1

HCC1599 = test system: HCC1599
Procedure, shortened: as §1

CAL-120 = test system: CAL-120
Procedure, shortened: as §1

HDQ-P1 = test system: HDQ-P1
Procedure, shortened: as §1

CAL-85-1 = test system: CAL-85-1
Procedure, shortened: as §1

MDA-MB-231 = test system: MDA-MB-231
Procedure, shortened: as §1

HCC1937 = test system: HCC1937
Procedure, shortened: as §1

BT-549 = test system: BT-549
Procedure, shortened: as §1

CAL-51 = test system: CAL-51
Procedure, shortened: as §1

HCC1143 = test system: HCC1143
Procedure, shortened: as §1

MDA-MB-468 = test system: MDA-MB-468
Procedure, shortened: as §1

MCF-10A = test system: MCF-10A
Procedure, shortened: as §1

DU-4475 = test system: DU-4475
Procedure, shortened: as §1

MFM-223 = test system: MFM-223
Procedure, shortened: as §1

MDA-MB-453 = test system: MDA-MB-453
Procedure, shortened: as §1

SMILES | normalised response (CAL-148) [%] | normalised response (MDA-MB-436) [%] | normalised response (Hs578T) [%] | normalised response (BT-474) [%] | normalised response (HCC1599) [%] | normalised response (CAL-120) [%] | normalised response (HDQ-P1) [%] | normalised response (CAL-85-1) [%] | normalised response (MDA-MB-231) [%] | normalised response (HCC1937) [%] | normalised response (BT-549) [%] | normalised response (CAL-51) [%] | normalised response (HCC1143) [%] | normalised response (MDA-MB-468) [%] | normalised response (MCF-10A) [%] | normalised response (DU-4475) [%] | normalised response (MFM-223) [%] | normalised response (MDA-MB-453) [%]
Nc1ncn([C@@H]2O[C@H](CO)[C@@H](O)[C@H]2O)c(=O)n1 [Azacitidine] (10000 nM) | 97.7 | 55.6 | 84.9 | 80 | 92 | 96.5 | 103 | 110 | 75.5 | 93.3 | 99.8 | 75.7 | 87.7 | 73.4 | 81.2 | 86.7 | 89.7 | 98.8
O=NN(CCCl)C(=O)NCCCl [Carmustine] (1000 nM) | 98 | 99.5 | 106 | 97.3 | 94.9 | 95.8 | 99 | 102 | 105 | 112 | 96.9 | 115 | 105 | 86 | 92.1 | 96.9 | 66.4 | 103
O=NN(CCCl)C(=O)NCCCl [Carmustine] (10000 nM) | 98.7 | 88.9 | 100 | 98.8 | 102 | 98.7 | 91.3 | 114 | 96.9 | 86.4 | 84.3 | 100 | 54.2 | 138 | 104 | 95.3 | 94.8 | 99.4
CC1=C2C[C@H]3[C@@H](CC=C4C[C@@H](O)CC[C@@]43C)[C@@H]2CC[C@]12O[C@@H]1C[C@H](C)CN[C@H]1[C@H]2C [Cyclopamine] (1000 nM) | 95.1 | 99.3 | 104 | 101 | 104 | 101 | 96.9 | 101 | 119 | 70 | 108 | 95.5 | 100 | 78.1 | 108 | 101 | 75.1 | 103
CC1=C2C[C@H]3[C@@H](CC=C4C[C@@H](O)CC[C@@]43C)[C@@H]2CC[C@]12O[C@@H]1C[C@H](C)CN[C@H]1[C@H]2C [Cyclopamine] (10000 nM) | 100 | 92.2 | 51.4 | 98 | 101 | 97.8 | 110 | 66.8 | 116 | – | 59 | 98.9 | – | 155 | 58.9 | 103 | 89.6 | 103
CC(=O)O[C@@]12CO[C@@H]1C[C@H](O)[C@@]1(C)C(=O)[C@H](O)C3=C(C)[C@@H](OC(=O)[C@H](O)[C@@H](NC(=O)OC(C)(C)C)c4ccccc4)C[C@@](O)([C@@H](OC(=O)c4ccccc4)[C@H]21)C3(C)C [Docetaxel] (100 nM) | 83.2 | 69 | 49.4 | 57.1 | 82.8 | 86.7 | 75.8 | 19.7 | -12.5 | 102 | 69.3 | 16.6 | 76 | 145 | 34.9 | 95.2 | 59.5 | 100
CC(=O)O[C@@]12CO[C@@H]1C[C@H](O)[C@@]1(C)C(=O)[C@H](O)C3=C(C)[C@@H](OC(=O)[C@H](O)[C@@H](NC(=O)OC(C)(C)C)c4ccccc4)C[C@@](O)([C@@H](OC(=O)c4ccccc4)[C@H]21)C3(C)C [Docetaxel] (1000 nM) | 84.2 | 71.9 | 22.6 | 58.4 | 88.5 | 89.9 | 35.5 | 29.6 | -47.2 | 46.5 | 38.7 | 45.6 | 55.4 | 134 | 36.3 | 98.5 | 53.9 | 92.4
CC1(C)CNc2cc(NC(=O)c3cccnc3NCc3ccncc3)ccc21 [Motesanib] (1000 nM) | 103 | 79 | 83.6 | 98 | 97.3 | 99.5 | 108 | 91.8 | 97.7 | – | 123 | 96.1 | 103 | 108 | 95.4 | 100 | 97 | 101
CC[C@@H]1C(=O)OC[C@@H]1Cc1cncn1C [Pilocarpine] (4000 nM) | 73.7 | 81.4 | 70.9 | 96 | 92.5 | 99.3 | – | 95.5 | 97.8 | – | 112 | 104 | 72.1 | 66.5 | 101 | 95.3 | 69.2 | 101
CC[C@@H]1C(=O)OC[C@@H]1Cc1cncn1C [Pilocarpine] (40000 nM) | 96.3 | 92.3 | – | 98.6 | 97 | 52.5 | – | 114 | 93.1 | 97.7 | 107 | 98.4 | 80.7 | – | 83.9 | 96.7 | 97.4 | 93.9
Nc1nc2[nH]cnc2c(=S)[nH]1 [Thioguanine] (1000 nM) | 94 | 101 | 103 | 96.4 | 97.8 | 103 | 109 | 112 | 48.4 | 114 | 108 | 102 | – | 121 | 98.7 | 104 | 92.8 | 106
